Data: patent US20230286970A1, “NOVEL OXADIAZOLE-BASED SELECTIVE HDAC6 INHIBITORS” (ITALFARMACO S.P.A., priority 2020, published 2023)
Each block holds one compound with its values, some of them ahead of it.

Assays:
recombinant human HDAC6 = recombinant human HDAC6 (Homo sapiens (Human), UniProt Q9UBN7); assay: Enzymatic screening, HDAC6 inhibition (fluorogenic FdL_G substrate); assay type: biochemical
Procedure, shortened: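 Enzyme was preincubated with compound (8 doses, triplicate, 1% DMSO) in 25 mM Tris-HCl pH 8, 130 mM NaCl, 0.05% Tween-20, 10% glycerol, with BSA. A FLUOR DE LYS-Green substrate was then added, and fluorescence was read after developer plus 2 μM TSA.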

recombinant human HDAC1 = recombinant human HDAC1 (Homo sapiens (Human), UniProt Q13547); assay: Enzymatic screening, HDAC1 inhibition (fluorogenic FdL_G substrate); assay type: biochemical
Sequence of recombinant human HDAC1 (Q13547 whole entry): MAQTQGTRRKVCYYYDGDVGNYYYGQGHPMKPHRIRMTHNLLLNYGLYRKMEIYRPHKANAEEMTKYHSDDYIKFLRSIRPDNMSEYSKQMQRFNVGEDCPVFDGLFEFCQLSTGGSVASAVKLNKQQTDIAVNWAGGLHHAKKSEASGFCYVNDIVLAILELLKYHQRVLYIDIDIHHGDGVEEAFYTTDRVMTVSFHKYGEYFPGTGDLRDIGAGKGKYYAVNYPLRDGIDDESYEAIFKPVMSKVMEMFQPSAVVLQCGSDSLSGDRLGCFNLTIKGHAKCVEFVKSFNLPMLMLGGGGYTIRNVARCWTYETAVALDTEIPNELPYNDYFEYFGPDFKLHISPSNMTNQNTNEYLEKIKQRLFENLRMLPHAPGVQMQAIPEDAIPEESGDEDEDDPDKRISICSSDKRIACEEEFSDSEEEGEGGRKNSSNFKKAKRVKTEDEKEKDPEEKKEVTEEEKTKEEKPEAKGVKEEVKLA
Procedure, shortened: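 Recombinant human HDAC1 inhibition was measured fluorometrically using the FLUOR DE LYS-Green (FdL_G) substrate. Compounds at 8 doses (1% DMSO final) in Tris-HCl pH 8 buffer with NaCl, Tween-20 and glycerol were preincubated in triplicate with enzyme and 1 mg/mL BSA, then given substrate. Developer I plus 2 μM TSA was added, and fluorescence read after 25 minutes in the dark.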

Sequence of recombinant human HDAC6 (Q9UBN7 whole entry): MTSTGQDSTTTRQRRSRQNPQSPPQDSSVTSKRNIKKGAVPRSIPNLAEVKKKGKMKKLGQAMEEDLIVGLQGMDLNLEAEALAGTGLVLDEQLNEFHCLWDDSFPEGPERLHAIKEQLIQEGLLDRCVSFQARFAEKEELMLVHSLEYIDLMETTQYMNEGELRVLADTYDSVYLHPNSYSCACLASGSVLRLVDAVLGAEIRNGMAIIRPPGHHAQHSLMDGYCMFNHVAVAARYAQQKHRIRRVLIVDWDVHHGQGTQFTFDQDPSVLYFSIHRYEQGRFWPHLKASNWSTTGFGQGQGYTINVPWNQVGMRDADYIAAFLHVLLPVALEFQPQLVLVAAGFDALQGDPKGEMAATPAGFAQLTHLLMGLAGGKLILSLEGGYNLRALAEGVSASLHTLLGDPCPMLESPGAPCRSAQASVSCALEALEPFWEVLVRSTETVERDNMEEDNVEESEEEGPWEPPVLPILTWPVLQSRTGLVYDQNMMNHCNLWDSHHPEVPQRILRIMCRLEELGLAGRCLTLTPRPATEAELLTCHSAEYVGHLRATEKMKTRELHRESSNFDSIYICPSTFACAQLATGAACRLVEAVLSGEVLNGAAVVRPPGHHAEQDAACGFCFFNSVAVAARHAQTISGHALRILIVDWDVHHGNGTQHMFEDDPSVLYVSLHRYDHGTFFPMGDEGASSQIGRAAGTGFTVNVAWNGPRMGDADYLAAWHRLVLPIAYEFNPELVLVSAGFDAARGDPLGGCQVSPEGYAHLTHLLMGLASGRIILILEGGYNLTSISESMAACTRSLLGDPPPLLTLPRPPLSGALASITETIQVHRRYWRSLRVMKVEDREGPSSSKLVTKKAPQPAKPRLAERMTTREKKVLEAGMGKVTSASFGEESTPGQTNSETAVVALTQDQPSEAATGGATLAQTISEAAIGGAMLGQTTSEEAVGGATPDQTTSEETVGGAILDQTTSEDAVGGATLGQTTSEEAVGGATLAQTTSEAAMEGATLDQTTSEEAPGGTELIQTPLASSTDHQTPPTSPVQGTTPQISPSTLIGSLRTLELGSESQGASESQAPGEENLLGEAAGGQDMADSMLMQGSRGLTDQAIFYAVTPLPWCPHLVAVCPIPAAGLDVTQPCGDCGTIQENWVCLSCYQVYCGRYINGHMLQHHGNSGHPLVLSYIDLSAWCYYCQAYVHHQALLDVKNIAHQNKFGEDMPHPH

Compound: CN1CC(C(=O)Nc2cccc(-c3cn(Cc4c(F)cc(-c5nnc(C(F)F)o5)cc4F)nn3)c2)C1 [Compd. 86, N-(3-(1-(4-(5-(difluoromethyl)-1,3,4-oxadiazol-2-yl)-2,6-difluorobenzyl)-1H-1,2,3-triazol-4-yl)phenyl)-1-methylazetidine-3-carboxamide]
IC50 (recombinant human HDAC6): 0.034 µM
IC50 (recombinant human HDAC1): > 200 µM

Compound: CNc1ccc2cc(-c3nnn(Cc4ccc(-c5nnc(C(F)F)o5)c(F)c4)n3)ccc2n1 [compound 403, 6-[2-[[4-[5-(difluoromethyl)-1,3,4-oxadiazol-2-yl]-3-fluorophenyl]methyl]tetrazol-5-yl]-N-methylquinolin-2-amine]
IC50 (recombinant human HDAC6): 0.117 µM
IC50 (recombinant human HDAC1): 1000 µM

Compound: FC(F)c1nnc(-c2ccc(Cn3cc(-c4ccc5nc(N6CCCC6)[nH]c5c4)nn3)cc2)o1 [compd. 190, 2-(difluoromethyl)-5-(4-((4-(2-(pyrrolidin-1-yl)-1H-benzo[d]imidazol-6-yl)-1H-1,2,3-triazol-1-yl)methyl)phenyl)-1,3,4-oxadiazole]
IC50 (recombinant human HDAC6): 0.099 µM
IC50 (recombinant human HDAC1): > 200 µM

Compound: CN(C)c1ccc(-c2cn(Cc3ccc(-c4nnc(C(F)F)o4)cc3)nn2)cc1 [compound 281, 4-(1-(4-(5-(difluoromethyl)-1,3,4-oxadiazol-2-yl)benzyl)-1H-1,2,3-triazol-4-yl)-N,N-dimethylaniline]
IC50 (recombinant human HDAC6): 0.2 µM
IC50 (recombinant human HDAC1): > 200 µM

Compound: O=C(Nc1cccc(-c2nnn(Cc3ccc(-c4nnc(C(F)F)o4)cc3)n2)c1)c1ccccc1 [compound 156, N-(3-(2-(4-(5-(difluoromethyl)-1,3,4-oxadiazol-2-yl)benzyl)-2H-tetrazol-5-yl)phenyl)benzamide]
IC50 (recombinant human HDAC6): 0.07 µM
IC50 (recombinant human HDAC1): > 200 µM

Compound: Cn1c(N)nc2cc(-c3cn(Cc4ccc(-c5nnc(C(F)F)o5)cc4Cl)nn3)ccc21 [compound 344, 5-[1-[[2-chloro-4-[5-(difluoromethyl)-1,3,4-oxadiazol-2-yl]phenyl]methyl]triazol-4-yl]-1-methylbenzimidazol-2-amine]
IC50 (recombinant human HDAC6): 0.047 µM
IC50 (recombinant human HDAC1): 84.4 µM

Compound: CNc1ccc(-c2nnn(Cc3ccc(-c4nnc(C(F)F)o4)cc3)n2)cc1NC(=O)N1CCOCC1 [compound 176, N-(5-(2-(4-(5-(difluoromethyl)-1,3,4-oxadiazol-2-yl)benzyl)-2H-tetrazol-5-yl)-2-(methylamino)phenyl)morpholine-4-carboxamide]
IC50 (recombinant human HDAC6): 0.088 µM
IC50 (recombinant human HDAC1): > 200 µM

Compound: Nc1ccc(-c2cn(Cc3ccc(-c4nnc(C(F)F)o4)cc3Cl)nn2)cn1 [compound 134, 5-(1-(2-chloro-4-(5-(difluoromethyl)-1,3,4-oxadiazol-2-yl)benzyl)-1H-1,2,3-triazol-4-yl)pyridin-2-amine]
IC50 (recombinant human HDAC6): 0.052 µM
IC50 (recombinant human HDAC1): > 200 µM

Compound: O=C(Nc1cc(-c2nnn(Cc3c(F)cc(-c4nnc(C(F)F)o4)cc3F)n2)ccc1O)N1CCOCC1 [compound 95, N-(5-(2-(4-(5-(difluoromethyl)-1,3,4-oxadiazol-2-yl)-2,6-difluorobenzyl)-2H-tetrazol-5-yl)-2-hydroxyphenyl)morpholine-4-carboxamide]
IC50 (recombinant human HDAC6): 0.037 µM
IC50 (recombinant human HDAC1): > 200 µM

Compound: CCCCC(c1ccc(-c2nnc(C(F)F)o2)cc1)n1cc(-c2cccc(NC(=O)N3CCOCC3)c2)nn1 (centres unmarked) [compound 244, N-(3-(1-(1-(4-(5-(difluoromethyl)-1,3,4-oxadiazol-2-yl)phenyl)pentyl)-1H-1,2,3-triazol-4-yl)phenyl)morpholine-4-carboxamide]
IC50 (recombinant human HDAC6): 0.24 µM
IC50 (recombinant human HDAC1): > 200 µM

Compound: Nc1ncnc2cc(-c3cn(Cc4ccc(-c5nnc(C(F)F)o5)cn4)nn3)ccc12 [compound 317, 7-[1-[[5-[5-(difluoromethyl)-1,3,4-oxadiazol-2-yl]pyridin-2-yl]methyl]triazol-4-yl]quinazolin-4-amine]
IC50 (recombinant human HDAC6): 0.034 µM
IC50 (recombinant human HDAC1): > 1000 µM

Compound: NC(=O)c1cccc(-c2noc(Cc3ccc(-c4nnc(C(F)F)o4)cc3)n2)c1 [Compd. 226, 3-(5-(4-(5-(difluoromethyl)-1,3,4-oxadiazol-2-yl)benzyl)-1,2,4-oxadiazol-3-yl)benzamide]
IC50 (recombinant human HDAC6): 0.169 µM
IC50 (recombinant human HDAC1): > 200 µM

Compound: CN(C)S(=O)(=O)c1ccc(F)c(-c2nnn(Cc3ccc(-c4nnc(C(F)F)o4)cc3)n2)c1 [compound 163, 3-(2-(4-(5-(difluoromethyl)-1,3,4-oxadiazol-2-yl)benzyl)-2H-tetrazol-5-yl)-4-fluoro-N,N-dimethylbenzenesulfonamide]
IC50 (recombinant human HDAC6): 0.077 µM
IC50 (recombinant human HDAC1): > 200 µM

Compound: CNc1ccc2cc(-c3nnn(Cc4ccc(-c5nnc(C(F)F)o5)c(F)c4F)n3)ccc2n1 [compound 407, 6-(2-(4-(5-(difluoromethyl)-1,3,4-oxadiazol-2-yl)-2,3-difluorobenzyl)-2H-tetrazol-5-yl)-N-methylquinolin-2-amine]
IC50 (recombinant human HDAC6): 0.136 µM
IC50 (recombinant human HDAC1): 1000 µM

Compound: CC1(C)CN(c2cccc(-c3cn(Cc4c(F)cc(-c5nnc(C(F)F)o5)cc4F)nn3)c2)C1=O [compound 92, 1-(3-(1-(4-(5-(difluoromethyl)-1,3,4-oxadiazol-2-yl)-2,6-difluorobenzyl)-1H-1,2,3-triazol-4-yl)phenyl)-3,3-dimethylazetidin-2-one]
IC50 (recombinant human HDAC6): 0.035 µM
IC50 (recombinant human HDAC1): > 200 µM

Compound: Fc1cc(Cn2nnc(-c3cccc(-c4nc5c([nH]4)CNCC5)c3)n2)ccc1-c1nnc(C(F)F)o1 [compound 364, 2-(difluoromethyl)-5-[2-fluoro-4-[[5-[3-(4,5,6,7-tetrahydro-3H-imidazo[4,5-c]pyridin-2-yl)phenyl]tetrazol-2-yl]methyl]phenyl]-1,3,4-oxadiazole]
IC50 (recombinant human HDAC6): 0.037 µM
IC50 (recombinant human HDAC1): 570 µM

Compound: CC1(C)NC(=O)c2cc(-c3cn(Cc4ccc(-c5nnc(C(F)F)o5)cc4)nn3)ccc21 [compound 245, 6-(1-(4-(5-(difluoromethyl)-1,3,4-oxadiazol-2-yl)benzyl)-1H-1,2,3-triazol-4-yl)-3,3-dimethylisoindolin-1-one]
IC50 (recombinant human HDAC6): 0.264 µM
IC50 (recombinant human HDAC1): > 200 µM

Compound: Nc1ncnc2sc(-c3cn(Cc4c(F)cc(-c5nnc(C(F)F)o5)cc4F)nn3)cc12 [compound 386, 6-(1-(4-(5-(difluoromethyl)-1,3,4-oxadiazol-2-yl)-2,6-difluorobenzyl)-1H-1,2,3-triazol-4-yl)thieno[2,3-d]pyrimidin-4-amine]
IC50 (recombinant human HDAC6): 0.04 µM
IC50 (recombinant human HDAC1): 1000 µM

Compound: O=C1Nc2cc(-c3nnn(Cc4ccc(-c5nnc(C(F)F)o5)cc4)n3)ccc2NC12CCCCC2 [compound 209, 6′-(2-(4-(5-(difluoromethyl)-1,3,4-oxadiazol-2-yl)benzyl)-2H-tetrazol-5-yl)-1′,4′-dihydro-3′H-spiro[cyclohexane-1,2′-quinoxalin]-3′-one]
IC50 (recombinant human HDAC6): 0.133 µM
IC50 (recombinant human HDAC1): > 200 µM

Stronger by IC50 (recombinant human HDAC6), values ahead:

IC50 (recombinant human HDAC6): 0.027 µM
IC50 (recombinant human HDAC1): > 1000 µM
Compound: Nc1nc2ccc(-c3cn(Cc4ccc(-c5nnc(C(F)F)o5)c(F)c4)nn3)cc2s1 [compound 347, 6-[1-[[4-[5-(difluoromethyl)-1,3,4-oxadiazol-2-yl]-3-fluorophenyl]methyl]triazol-4-yl]-1,3-benzothiazol-2-amine]

IC50 (recombinant human HDAC6): 0.026 µM
IC50 (recombinant human HDAC1): > 1000 µM
Compound: O=C1Cc2cc(-c3cn(Cc4ccc(-c5nnc(C(F)F)o5)cn4)nn3)ccc2N1 [compound 325, 5-[1-[[5-[5-(difluoromethyl)-1,3,4-oxadiazol-2-yl]pyridin-2-yl]methyl]triazol-4-yl]-1,3-dihydroindol-2-one]

IC50 (recombinant human HDAC6): 0.007 µM
IC50 (recombinant human HDAC1): > 200 µM
Compound: FC(F)c1nnc(-c2ccc(Cn3cc(-c4ccc(NC5=NCCN5)cc4)nn3)nc2)o1 [compd. 24, N-(4-(1-((5-(5-(difluoromethyl)-1,3,4-oxadiazol-2-yl)pyridin-2-yl)methyl)-1H-1,2,3-triazol-4-yl)phenyl)-4,5-dihydro-1H-imidazol-2-amine]

IC50 (recombinant human HDAC6): 0.018 µM
IC50 (recombinant human HDAC1): > 1000 µM
Compound: Fc1cc(Cn2cnc(-c3ccc(NC4=NCCN4)cc3)c2)ccc1-c1nnc(C(F)F)o1 [compound 360, N-[4-[1-[[4-[5-(difluoromethyl)-1,3,4-oxadiazol-2-yl]-3-fluorophenyl]methyl]imidazol-4-yl]phenyl]-4,5-dihydro-1H-imidazol-2-amine]

IC50 (recombinant human HDAC6): 0.017 µM
IC50 (recombinant human HDAC1): > 1000 µM
Compound: Nc1nc2cc(-c3cn(Cc4ccc(-c5nnc(C(F)F)o5)cn4)cn3)ccc2s1 [compound 322, 5-[1-[[5-[5-(difluoromethyl)-1,3,4-oxadiazol-2-yl]pyridin-2-yl]methyl]imidazol-4-yl]-1,3-benzothiazol-2-amine]

IC50 (recombinant human HDAC6): 0.017 µM
IC50 (recombinant human HDAC1): > 1000 µM
Compound: [2H]C([2H])(c1ccc(-c2nnc(C(F)F)o2)cc1)n1cnc(-c2ccc(NC3=NCCN3)cc2)c1 [compound 368, N-[4-[1-[dideuterio-[4-[5-(difluoromethyl)-1,3,4-oxadiazol-2-yl]phenyl]methyl]imidazol-4-yl]phenyl]-4,5-dihydro-1H-imidazol-2-amine]

IC50 (recombinant human HDAC6): 0.032 µM
IC50 (recombinant human HDAC1): > 200 µM
Compound: Nc1ccc(-c2cn(C(CCNC(=O)C(F)F)c3ccc(-c4nnc(C(F)F)o4)cn3)nn2)cn1 (centres unmarked) [compd. 295, N-(3-(4-(6-aminopyridin-3-yl)-1H-1,2,3-triazol-1-yl)-3-(5-(5-(difluoromethyl)-1,3,4-oxadiazol-2-yl)pyridin-2-yl)propyl)-2,2-difluoroacetamide]

IC50 (recombinant human HDAC6): 0.03 µM
IC50 (recombinant human HDAC1): 1000 µM
Compound: [2H]C([2H])(c1ccc(-c2nnc(C(F)F)o2)c(F)c1F)n1cc(-c2ccc(N)nc2)nn1 [compound 385, 5-[1-[dideuterio-[4-[5-(difluoromethyl)-1,3,4-oxadiazol-2-yl]-2,3-difluorophenyl]methyl]triazol-4-yl]pyridin-2-amine]

IC50 (recombinant human HDAC6): 0.018 µM
IC50 (recombinant human HDAC1): > 1000 µM
Compound: CC1(C)C(=O)Nc2ccc(-c3cn(Cc4ccc(-c5nnc(C(F)F)o5)cn4)nn3)cc21 [compound 324, 5-[1-[[5-[5-(difluoromethyl)-1,3,4-oxadiazol-2-yl]pyridin-2-yl]methyl]triazol-4-yl]-3,3-dimethyl-1H-indol-2-one]
